Measurements as given in patent publication US20100075965A1, “PI3 KINASE INHIBITORS AND METHODS OF THEIR USE” (Novartis AG, priority 2006, published 2010).
pEC50, pIC50: −log10 of the molar value. Where two headings read alike, the source gives them in different places.

How the values were obtained:
[1] = target: PI3 K Alpha (Homo sapiens, UniProt P42336); assay: PI3 kinase phosphorylation assays (homogenous solution phase, one step solid phase, ATP depletion/KinaseGlo); format: biochemical
[2] = system: pSer473-Akt in A2780 cells; assay: pSer473 Akt assay to monitor PI3K pathway in A2780 cells (MSD); format: cell-based; settings: Homo sapiens
Protocol: In this method, an assay for measuring the PI3K-mediated pSer^473-Akt status after treatment with representative inhibitor compounds of the preferred embodiments is described.
A2780 cells were cultured in DMEM supplemented with 10% FBS, L-glutamine, sodium pyruvate, and antibiotics. Cells were plated in the same medium at a density of 15,000 cells per well into 96 well tissue culture plates, with outside wells vacant, and allowed to adhere overnight.
Test compounds supplied in DMSO were diluted further into DMSO at 500 times the desired final concentrations before dilution into culture media to 2 times the final concentrations. Equal volumes of 2× compounds in media were added to the cells in 96 well plates and incubated at 37° C. for one hour. The media and compounds were then removed, the plates chilled and cells lysed in a lysis buffer (150 mM NaCl, 20 mM Tris pH 7.5, 1 mM EDTA, 1 mM EGTA, 1% Triton X-100) supplemented with phosphatase and protease inhibitors. After thorough mixing, lysates were transferred to both pSer473Akt and total Akt assay plates from Meso Scale Discovery (MSD), and incubated overnight with shaking at 4° C. The plates were washed with 1×MSD wash buffer and the captured analytes detected with secondary antibodies. After incubation with the secondary antibody at room temperature for 1-2 hours, the plates were washed again and 1.5× concentration of Read Buffer T (MSD) was added to the wells.
The assays were read on a SECTOR Imager 6000 instrument (Meso Scale Discovery). Ratios of the signal from pSer473Akt and total Akt assays were used to correct for any variability and the percent inhibition of pSer473Akt from the total signal seen in cells treated with compound versus DMSO alone was calculated and used to determine EC50 values for each compound as shown in Tables 1 and 2 in the column labeled “A2780 pAKT473 EC50”.

[3] = system: A2780 cells; assay: Viability assay in A2780 (Cell Titer Glo); format: cell-based, human; settings: Homo sapiens
Outline: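 EC50 values come from Cell Titer Glo luminescence after 72 hrs of compound exposure at 37° C, run in duplicate. A2780 cells were plated at 1,000 per well in DMEM with 10% FBS and dosed with 3-fold serial dilutions.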

[4] = ATP depletion assay, read-out: PI3 K Alpha IC50
[5] = 1 h, A2780 cells, one hour incubation, read-out: A2780 pAKT473 EC50
[6] = A2780 cells, 72 hrs, read-out: A2780 Cell prolif. EC50
[7] = A2780 cells, read-out: A2780 pAKT 473 EC50
[8] = A2780 cells, read-out: A2780 Cell prolif. EC50

Chain of PI3 K Alpha (P42336 whole entry): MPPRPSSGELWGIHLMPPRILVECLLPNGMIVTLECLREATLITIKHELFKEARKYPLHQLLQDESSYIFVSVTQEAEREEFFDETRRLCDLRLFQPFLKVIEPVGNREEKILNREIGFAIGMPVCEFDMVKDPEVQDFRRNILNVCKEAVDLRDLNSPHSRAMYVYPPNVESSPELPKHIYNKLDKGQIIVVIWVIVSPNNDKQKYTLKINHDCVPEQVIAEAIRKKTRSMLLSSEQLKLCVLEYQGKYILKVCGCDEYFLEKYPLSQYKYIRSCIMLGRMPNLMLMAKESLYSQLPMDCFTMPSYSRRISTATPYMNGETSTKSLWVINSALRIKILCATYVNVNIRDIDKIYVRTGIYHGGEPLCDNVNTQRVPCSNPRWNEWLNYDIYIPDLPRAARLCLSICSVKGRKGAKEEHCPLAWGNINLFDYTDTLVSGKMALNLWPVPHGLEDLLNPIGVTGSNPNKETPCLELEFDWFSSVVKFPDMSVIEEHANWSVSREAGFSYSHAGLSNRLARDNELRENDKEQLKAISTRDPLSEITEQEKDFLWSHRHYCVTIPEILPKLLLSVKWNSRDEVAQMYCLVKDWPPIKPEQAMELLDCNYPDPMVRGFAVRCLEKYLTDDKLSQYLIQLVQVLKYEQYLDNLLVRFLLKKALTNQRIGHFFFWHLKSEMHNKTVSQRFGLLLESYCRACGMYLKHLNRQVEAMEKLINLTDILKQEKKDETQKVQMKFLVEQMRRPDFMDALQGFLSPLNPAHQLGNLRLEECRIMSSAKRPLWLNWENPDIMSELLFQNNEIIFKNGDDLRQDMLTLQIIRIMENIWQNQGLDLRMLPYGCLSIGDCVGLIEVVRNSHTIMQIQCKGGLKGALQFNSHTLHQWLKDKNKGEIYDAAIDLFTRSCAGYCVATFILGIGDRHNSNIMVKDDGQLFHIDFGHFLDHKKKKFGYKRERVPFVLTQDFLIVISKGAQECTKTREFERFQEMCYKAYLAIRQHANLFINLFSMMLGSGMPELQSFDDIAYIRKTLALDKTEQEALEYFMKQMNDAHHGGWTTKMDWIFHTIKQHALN
Chain of PI3 K Alpha (P27986 whole entry partner): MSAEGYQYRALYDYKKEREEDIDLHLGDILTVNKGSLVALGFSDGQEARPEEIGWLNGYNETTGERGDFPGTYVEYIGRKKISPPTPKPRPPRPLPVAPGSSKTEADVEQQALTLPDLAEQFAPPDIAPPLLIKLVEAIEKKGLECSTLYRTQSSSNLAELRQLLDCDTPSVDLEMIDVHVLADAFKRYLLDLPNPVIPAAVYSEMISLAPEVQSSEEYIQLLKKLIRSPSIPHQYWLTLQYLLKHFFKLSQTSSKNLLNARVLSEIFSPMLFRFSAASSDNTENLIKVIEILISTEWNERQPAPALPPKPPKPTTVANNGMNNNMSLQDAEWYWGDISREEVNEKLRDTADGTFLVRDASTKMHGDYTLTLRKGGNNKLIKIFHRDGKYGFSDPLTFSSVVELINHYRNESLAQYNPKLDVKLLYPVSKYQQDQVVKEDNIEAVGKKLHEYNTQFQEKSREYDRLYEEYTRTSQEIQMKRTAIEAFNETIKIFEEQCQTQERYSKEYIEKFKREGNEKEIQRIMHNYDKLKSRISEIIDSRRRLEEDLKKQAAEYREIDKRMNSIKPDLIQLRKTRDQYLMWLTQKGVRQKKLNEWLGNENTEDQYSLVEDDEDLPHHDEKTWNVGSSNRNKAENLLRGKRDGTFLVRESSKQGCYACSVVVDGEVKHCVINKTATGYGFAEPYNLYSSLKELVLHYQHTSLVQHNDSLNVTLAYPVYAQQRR

pIC50 [1, 4] | pEC50 [2, 5] | pEC50 [3, 6] | pIC50 ([1]; read-out: PI3K Alpha IC50) | pEC50 [2, 7] | pEC50 [3, 8] | SMILES | pEC50 ([2]; A2780, read-out: A2780 pAKT 473 EC50) | pEC50 ([3]; A2780, read-out: A2780 Cell prolif. EC50)
> 6.00 | > 6.00 | > 5.00 |  |  |  | COC(=O)Nc1nc2ccc(-c3ccc(N)nc3)cc2s1 [Example 2-3, [6-(6-Amino-pyridin-3-yl)-benzothiazol-2-yl]-carbamic acid methyl ester] |  | 
> 6.00 | > 6.00 | > 5.00 |  |  |  | CC(=O)Nc1nc2ccc(-c3cnc(N)c(F)c3)cc2s1 [Example 2-6, N-[6-(6-Amino-5-fluoro-pyridin-3-yl)-benzothiazol-2-yl]-acetamide] |  | 
> 6.00 | > 6.00 | > 4.60 |  |  |  | CCCNc1ccc(-c2ccc3nc(NC(C)=O)sc3c2)cn1 [Example 2-7, N-[6-(6-Propylamino-pyridin-3-yl)-benzothiazol-2-yl]-acetamide] |  | 
> 6.00 | > 6.00 | > 4.60 |  |  |  | Nc1ccc(-c2ccc3nc(NC(=O)CCCN4CCOCC4)sc3c2)cn1 [Example 2-10, N-[6-(6-Amino-pyridin-3-yl)-benzothiazol-2-yl]-4-morpholin-4-yl-butyramide] |  | 
> 6.00 | > 6.00 | > 5.00 |  |  |  | Nc1ncc(-c2ccc3nc(NC(=O)CCCN4CCOCC4)sc3c2)cn1 [Example 2-11, N-[6-(2-Amino-pyrimidin-5-yl)-benzothiazol-2-yl]-4-morpholin-4-yl-butyramide] |  | 
> 6.00 | > 6.00 | > 4.60 |  |  |  | Nc1ccc(-c2ccc3nc(NC(=O)CN4CCOCC4)sc3c2)cn1 [Example 2-16, N-[6-(6-Amino-pyridin-3-yl)-benzothiazol-2-yl]-2-morpholin-4-yl-acetamide] |  | 
> 6.00 | > 5.00 | > 4.60 |  |  |  | CC(=O)Nc1nc2ccc(-c3cnc(N)cc3C)cc2s1 [Example 2-18, N-[6-(6-Amino-4-methyl-pyridin-3-yl)-benzothiazol-2-yl]-acetamide] |  | 
> 6.00 | > 6.00 | > 5.00 |  |  |  | CNC(=O)Nc1nc2ccc(-c3ccc(N)nc3)cc2s1 [Example 2-23, 1-[6-(6-Amino-pyridin-3-yl)-benzothiazol-2-yl]-3-methyl-urea] |  | 
> 6.00 | > 5.00 | > 4.60 |  |  |  | Nc1ccc(-c2ccc3nc(NC(=O)OCCN4CCOCC4)sc3c2)cn1 [Example 2-24, [6-(6-Amino-pyridin-3-yl)-benzothiazol-2-yl]-carbamic acid 2-morpholin-4-yl-ethyl ester] |  | 
> 6.00 | > 6.00 | > 5.00 |  |  |  | CC(=O)Nc1nc2ccc(-c3cnc(N)c(CN(C)C)c3)cc2s1 [Example 2-25, N-[6-(6-Amino-5-dimethylamino-methyl-pyridin-3-yl)-benzothiazol-2-yl]-acetamide] |  | 
> 6.00 | > 6.00 | > 5.00 |  |  |  | CC(=O)Nc1nc2ccc(-c3cnc(N)c(C(=O)N4CCOCC4)c3)cc2s1 [Example 2-26, N-{6-[6-Amino-5-(morpholine-4-carbonyl)-pyridin-3-yl]-benzothiazol-2-yl}-acetamide] |  | 
> 6.00 | > 6.00 | > 5.00 |  |  |  | CC(=O)Nc1nc2ccc(-c3cnc(N)c(C(F)(F)F)c3)c(C)c2s1 [Example 2-27, N-[6-(6-Amino-5-trifluoromethyl-pyridin-3-yl)-7-methyl-benzothiazol-2-yl]-acetamide] |  | 
> 6.00 | > 6.00 | > 5.00 |  |  |  | CC(=O)Nc1nc2ccc(-c3cnc(N)c(C(F)(F)F)c3)c(F)c2s1 [Example 2-30, N-[6-(6-Amino-5-trifluoromethyl-pyridin-3-yl)-7-fluoro-benzothiazol-2-yl]-acetamide] |  | 
> 6.00 | > 6.00 | > 4.60 |  |  |  | CC(=O)Nc1nc2c(F)cc(-c3cnc(N)c(C(F)(F)F)c3)cc2s1 [Example 2-31, N-[6-(6-Amino-5-trifluoromethyl-pyridin-3-yl)-4-fluoro-benzothiazol-2-yl]-acetamide] |  | 
> 6.00 | > 6.00 | > 5.00 |  |  |  | COCCOc1nc(-c2ccc3nc(NC(C)=O)sc3c2)cnc1N [Example 2-32, N-(6-(5-amino-6-(2-methoxyethoxy)pyrazin-2-yl)benzo[d]thiazol-2-yl)acetamide] |  | 
> 6.00 | > 6.00 | > 5.00 |  |  |  | NC(=O)[C@@H]1CCCN1C(=O)Nc1nc2ccc(-c3cnc(N)c(C(F)(F)F)c3)cc2s1 [Example 2-33, (S)-N1-(6-(6-amino-5-(trifluoromethyl)pyridin-3-yl)benzo[d]thiazol-2-yl)pyrrolidine-1,2-dicarboxamide] |  | 
> 6.00 | > 6.00 | > 6.00 |  |  |  | CC(=O)Nc1nc2ccc(-c3cnc(N)c(OCC(F)(F)F)n3)cc2s1 [Example 2-37, N-(6-(5-amino-6-(2,2,2-trifluoroethoxy)pyrazin-2-yl)benzo[d]thiazol-2-yl)acetamide] |  | 

Continued, compound first:

SMILES | pIC50 [1, 4] | pEC50 [2, 5] | pEC50 [3, 6] | pIC50 ([1]; read-out: PI3K Alpha IC50) | pEC50 [2, 7] | pEC50 [3, 8] | pEC50 ([2]; A2780, read-out: A2780 pAKT 473 EC50) | pEC50 ([3]; A2780, read-out: A2780 Cell prolif. EC50)
CC(=O)Nc1cn2cc(-c3ccc(N)nc3)ccc2n1 [Example 3, N-[6-(6-Amino-pyridin-3-yl)-imidazo[1,2-a]pyridin-2-yl]-acetamide] |  |  |  | > 6.00 | > 6.00 | > 5.00 |  | 
CC(=O)Nc1cn2cc(-c3cnc(N)nc3)ccc2n1 [Example 4, N-[6-(2-Amino-pyrimidin-5-yl)-imidazo[1,2-a]pyridin-2-yl]-acetamide] |  |  |  | > 6.00 | > 5.00 | > 4.60 |  | 
CC(=O)Nc1nc2ccc(-c3cnc(N)c(C(F)(F)F)c3)cn2c1Cl [Example 7, N-[6-(6-Amino-5-trifluoromethyl-pyridin-3-yl)-3-chloro-imidazo[1,2-a]pyridin-2-yl]-acetamide] |  |  |  | > 6.00 | > 5.00 | > 5.00 |  | 
COc1cc(-c2ccc3nc(NC(C)=O)c(Br)n3c2)cnc1N [Example 8, N-[6-(6-Amino-5-methoxy-pyridin-3-yl)-3-bromo-imidazo[1,2-a]pyridin-2-yl]-acetamide] |  |  |  | > 6.00 | > 6.00 | > 5.00 |  | 
CC(=O)Nc1nc2ccc(-c3cnc(N)c(C(F)(F)F)c3)cn2c1Br [Example 11, N-[6-(6-Amino-5-trifluoromethyl-pyridin-3-yl)-3-bromo-imidazo[1,2-a]pyridin-2-yl]-acetamide] |  |  |  | > 6.00 |  |  | > 5.00 | > 4.60
CC(=O)Nc1nc2ccc(-c3cnc(N)c(C(F)(F)F)c3)cn2c1-c1ccccc1 [Example 12, N-[6-(6-Amino-5-trifluoromethyl-pyridin-3-yl)-3-phenyl-imidazo[1,2-a]pyridin-2-yl]-acetamide] |  |  |  | > 6.00 | > 5.00 | > 4.60 |  | 
CC(=O)Nc1nc2ccc(-c3cnc(N)c(C(F)(F)F)c3)cn2c1-c1ccc(C(N)=O)cc1 [Example 13, 4-[2-Acetylamino-6-(6-amino-5-trifluoromethyl-pyridin-3-yl)-imidazo[1,2-a]pyridin-3-yl]-benzamide] |  |  |  | > 6.00 | > 4.60 | > 4.60 |  | 
CNC(=O)c1ccc(-c2c(NC(C)=O)nc3ccc(-c4cnc(N)c(C(F)(F)F)c4)cn23)cc1 [Example 18, 4-[2-Acetylamino-6-(6-amino-5-trifluoromethyl-pyridin-3-yl)-imidazo[1,2-a]pyridin-3-yl]-N-methyl-benzamide] |  |  |  | > 6.00 | > 5.00 | > 4.60 |  | 
COC(=O)Nc1cn2cc(-c3cnc(N)c(C(F)(F)F)c3)ccc2n1 [Example 19, [6-(6-Amino-5-trifluoromethyl-pyridin-3-yl)-imidazo[1,2-a]pyridin-2-yl]-carbamic acid methyl ester] |  |  |  | > 6.00 | > 6.00 | > 5.00 |  | 
CC(=O)Nc1nc2ccc(-c3cnc(N)c(C(F)(F)F)c3)cn2c1C#Cc1ccccc1 [Example 23, N-[6-(6-Amino-5-trifluoromethyl-pyridin-3-yl)-3-phenylethynyl-imidazo[1,2-a]pyridin-2-yl]-acetamide] |  |  |  | > 6.00 | > 6.00 | > 5.00 |  | 
Nc1ncc(-c2ccc3nc(NC(=O)CCCN4CCCCC4)cn3c2)cc1C(F)(F)F [Example 25, N-[6-(6-Amino-5-trifluoromethyl-pyridin-3-yl)-imidazo[1,2-a]pyridin-2-yl]-4-piperidin-1-yl-butyramide] |  |  |  | > 6.00 | > 6.00 | > 5.00 |  | 
